Key:
[1] = I-1 plasma and CSF concentrations during bolus/infusion regimen in tMCAO efficacy study; type: in vivo, Macaca fascicularis; conditions: for predicted I-1 [Plasma]: 22 h infusion; for Measured I-1 [CSF] / measured I-1 [Plasma]: 22 h, n = 4
Description: Macaques received a bolus dose of vehicle (40% PEG400 in 0.9% saline) or I-1 into a saphenous vein 2 h after occlusion (2 h prior to restoration of MCA blood flow), followed immediately by a 22 h intravenous infusion. This dosing regimen was designed to rapidly achieve and maintain pre-determined plasma and cerebrospinal fluid (CSF) steady-state concentrations of I-1 based on its pharmacokinetics previously determined in näive and MCA occluded macaques (Tables A-C below).
During MRI, vehicle or I-1 were infused into the saphenous vein via a syringe pump (TOP5500E, TOP Corp., Tokyo, Japan). Infusion following MRI was maintained via a portable, programmable IPRECIO® Dual infusion pump (DMP-100; Primetech Corp., Tokyo, Japan) ported into a jugular venous line, both being secured in a jacket. Methods for pharmacokinetic sampling and bioanalytical analysis of plasma and CSF are described below.
Blood samples (1.0 mL) were withdrawn into heparinized tubes from either the opposite cephalic or the femoral vein at 3, 6, 24, 48, 72 hours and 5 days post-occlusion. Heparinized blood was centrifuged at 4° C. at 1,800×g for 10 min. In the same animals, 0.3-0.5 mL of cerebrospinal fluid (CSF) was withdrawn at 6 and 24 hours post-occlusion. Macaques were sedated with ketamine (10 mg/kg, i.m.), CSF was collected via puncture of the cisterna magna. Plasma and CSF samples were flash frozen in liquid nitrogen and then stored at −70 C until shipment for processing. Samples were shipped on dry ice. Plasma and CSF concentrations of I-1 were determined by LC/MS/MS utilizing standard curves (performed at the Department of Bio Research, Kamakura Techno-Science, Inc. Kanagawa, Japan). Lower limits of quantitation for compound I-1 were 1.0 ng/mL and 0.1 ng/mL for plasma and CSF, respectively.

[2] = plasma protein binding (free fraction); type: in vitro ADME; conditions: mouse
Source text: (§1) Example 3 of U.S. Pat. No. 9,789,131, which is incorporated herein by reference, describes assays for determining the plasma and brain free fraction of certain compounds such as I-1. Compounds described herein may be evaluated using such assays or similar variants thereof.

[3] = test system: brain A1R/A3R; experiment: estimated brain receptor occupancy of I-1 in rodent efficacy studies; type: in vivo; conditions: mouse and rat efficacy models, from brain unbound drug concentrations
Source text: (§2) Receptor occupancy is a mass action relationship:
(§3) The percentage of a receptor occupied by an agonist or antagonist is a function of the drug concentration and the drug affinity for the receptor target. The challenge is that drug concentrations at the target site (in this case, brain, and CSF) can vary by species, as can affinity for the drug target. Affinity of I-1 for its receptor target can vary by as much as 5-fold between species. Accordingly, for each species, it is necessary to determine the I-1 affinity for its target as well as the concentration of I-1 at each administered dose in a relevant matrix.
In our rodent mouse and rat efficacy studies, we were able to directly determine brain unbound drug concentrations at efficacious doses. In those efficacy models, the estimated receptor occupancies associated with efficacy were around 1% or less.

[4] = neonatal pig pharmacokinetics: CSF versus brain extracellular fluid concentrations; type: in vivo; conditions: brain equilibrium dialysis
Source text: Using this receptor occupancy estimate, we advanced to studies in neonatal pigs, targeting doses that would yield unbound brain and CSF concentrations that would provide a similar receptor occupancy to that associated with efficacy in the rodent models. In the pig, we had the advantage of conducting pharmacokinetic studies involving CSF collection, brain equilibrium dialysis to directly determine brain unbound extracellular fluid concentrations, plasma concentrations and finally total brain concentrations. […] This was a key study to validate the use of I-1 CSF concentrations to estimate brain receptor occupancy. In the pig efficacy studies, we achieved efficacy at estimated receptor occupancies of around 2%.
Animals. Four-week old female neonatal pigs weighing approximately 7.5 Kg may be used for this study. Animals are equipped with brain microdialysis probes to obtain brain extracellular fluid samples for drug concentration determinations during the study.
Tissue Sampling: Blood samples are obtained at 0.25, 0.5, 1, 2, 4 and 6 hours post-dose. […]
Plasma, brain, brain extracellular fluid and cerebrospinal fluid concentrations of test compound are determined by LC-MS/MS utilizing tolbutamide as an internal standard. For each tissue matrix, standard curves are created and LLOQ/ULOQ concentrations determined.

[5] = brain tissue binding (free fraction); type: in vitro ADME, mouse
Source text: as §1

[6] = test system: brain A1R/A3R; experiment: estimated brain receptor occupancy of I-1 in nonhuman primate stroke study; type: in vivo
Description: Cerebrospinal fluid drug concentration is an established proxy for unbound drug brain concentration that interacts with central receptor targets (references 46, 47). The unbound brain concentrations and resulting brain receptor occupancy at the A1R and A3R can be estimated using receptor affinity data and simple mass action equations (references 48, 49). […] Accordingly, during the 22 h infusion of I-1, sufficient CSF concentrations were available to provide coverage of central A1R and A3R in the macaque.
as §2, §3
We then proceeded to our key preclinical stroke efficacy model in nonhuman primates. Pre-efficacy pharmacokinetic studies obtained plasma and CSF pharmacokinetic data. […]

[7] = High dose group, 5.2 mg/kg, 2.8 mg/kg/h, mean ± SEM
[8] = Low dose group, 0.47 mg/kg, 0.25 mg/kg/h, mean ± SEM
[9] = Mid dose group, 1.7 mg/kg, 0.9 mg/kg/h, mean ± SEM

CSc1nc(N)c2ncn([C@H]3C(O)C(O)[C@]4(CO)C[C@H]34)c2n1 (stereo in doubt) [Compound I-1]
plasma I-1 after end of infusion ([1]; 24 h following termination of Mid and High dose infusions): Measurable concentrations | predicted I-1 [Plasma] ([1]; High dose group, 5.2 mg/kg bolus, 2.8 mg/kg/h): 1660 ng/mL | Measured I-1 [CSF] [1, 7]: 108 ± 35 ng/mL | measured I-1 [Plasma] [1, 7]: 1127 ± 246 ng/mL | predicted I-1 [Plasma] ([1]; Low dose group, 0.47 mg/kg bolus, 0.25 mg/kg/h): 150 ng/mL | Measured I-1 [CSF] [1, 8]: 8.8 ± 2.6 ng/mL | measured I-1 [Plasma] [1, 8]: 186 ± 24 ng/mL | predicted I-1 [Plasma] ([1]; Mid dose group, 1.7 mg/kg bolus, 0.9 mg/kg/h): 540 ng/mL | Measured I-1 [CSF] [1, 9]: 16.8 ± 5.7 ng/mL | measured I-1 [Plasma] [1, 9]: 483 ± 23 ng/mL | predicted I-1 [Plasma] ([1]; Very Low dose group, 0.11 mg/kg bolus, 0.06 mg/kg/h): 35 ng/mL | measured I-1 [Plasma] ([1]; Very Low dose group, 0.11 mg/kg, 0.06 mg/kg/h, mean ± SEM of average over 22-hour infusion): 32 ± 11 ng/mL | Measured I-1 [CSF] ([1]; Very Low dose group, 0.11 mg/kg, 0.06 mg/kg/h, mean ± SEM): 2.1 ± 0.4 ng/mL | average plasma and CSF concentrations relative to targets ([1]; combined bolus/infusion regimen, all dose levels): ≤ 2 fold | plasma/CSF ratio ([1]; correlation of I-1 plasma and CSF concentrations, FIG. 5C): approximately 10 | free (unbound) fraction in plasma [2]: 0.74 | estimated receptor occupancies associated with efficacy [3]: ≤ 1% | I-1 concentrations in the CSF versus unbound brain extracellular fluid [4]: equal to unbound brain extracellular fluid concentrations | free (unbound) fraction in brain ([5]; mouse brain tissue): 0.13 | fraction available to interact with the A3 receptor, versus Cl-IB-IMECA ([5]; mouse models): at least 1000 fold | estimated receptor occupancy associated with significant efficacy ([6]; NHP stroke study, Low, Mid, High Doses): 1-15% | estimated receptor occupancy at which efficacy started ([6]; monkey): ~34%

Reference: patent publication US20250177405A1, “METHODS OF TREATING NEUROLOGICAL AND CARDIOVASCULAR CONDITIONS” (ASTROCYTE PHARMACEUTICALS, INC., priority 2021, published 2025)
